# Measurements published in patent US5302589A, “Heterocyclic inhibitors of 5-α-testosterone reductase” (Glaxo, Inc., priority 1992, dated 1994).
# Biological target: T1, 5-α-reductase (Homo sapiens, UniProt P31213)
# T1 construct: microsomes derived from human prostate tissue; from tissue; host or cells: human prostate tissue (BPH patients), microsomes
# T1 sequence (P31213 1-254): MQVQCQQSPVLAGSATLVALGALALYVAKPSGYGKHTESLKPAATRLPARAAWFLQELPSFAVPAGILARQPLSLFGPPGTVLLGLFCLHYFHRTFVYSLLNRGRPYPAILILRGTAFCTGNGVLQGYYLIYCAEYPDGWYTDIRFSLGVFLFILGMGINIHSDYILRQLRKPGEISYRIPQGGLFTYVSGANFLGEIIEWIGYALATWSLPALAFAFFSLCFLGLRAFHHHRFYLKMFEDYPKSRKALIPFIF
# Assay: Steroid 5-α-reductase in vitro assay (prostatic microsomes, conversion of [3H]-testosterone to DHT)
# Type: biochemical
# Conditions: microsomes from human (BPH) prostate tissue; 100 nM [1,2,6,7-^3 H]-testosterone, 1 mM NADPH, 60 minutes at 37° C.; HPLC with radiochemical detection; read-out: 5-α-REDUCTASE in vitro INHIBITORY ACTIVITY IC50 Human
# Description: Enzyme activity may be determined using microsomes derived from prostate tissue of benign prostatic hypertrophy (BPH) patients or from rat prostate tissue. Prostatic microsomes were prepared by homogenization of the tissue, followed by differential centrifugation of the homogenate. Microsome extracts were incubated with 100 nM [1,2,6,7-^3 H]-testosterone, 1 mM NADPH and varying amounts of the a compounds of Formula (I), i.e., a test compound, for 60 minutes at 37° C. Corresponding incubations were carried out with no test compound as a control study. The percentage of conversion of testosterone to DHT in the presence of a test compounds compared to the corresponding conversion in the control study was estimated using high pressure liquid chromatography (HPLC) with radiochemical detection. The results of this assay as IC50 values for microsomes derived from human prostate tissue are show in Table 1.
row,SMILES,IC50
1,"CCN(CC)C(=O)[C@H]1CC[C@H]2[C@@H]3Cn4ccc5c4[C@](C)(CCC5=O)[C@H]3CC[C@]12C [Compound 2, 17β-N,N-Diethylcarbamoyl-6-azaandrost-4,6-etheno-4-en-3-one]",10 to 100 nM
2,"CC(C)(C)NC(=O)[C@H]1CC[C@H]2[C@@H]3CN4CCCCC5=C4[C@](C)(CCC5=O)[C@H]3CC[C@]12C [Compound 4, 17β-N-t-Butylcarbamoyl-6-azaandrost-4,6-butano-4-en-3-one]",10 to 100 nM
3,"CC(C)(C)NC(=O)[C@H]1CC[C@H]2[C@@H]3Cn4ccc5c4[C@](C)(CCC5=O)[C@H]3CC[C@]12C [Compound 3, 17β-N-t-Butylcarbamoyl-6-azaandrost-4,6-etheno-4-en-3-one]",10 to 100 nM
4,"CCN(CC)C(=O)[C@H]1CC[C@H]2[C@@H]3Cn4nnc5c4[C@](C)(CCC5=O)[C@H]3CC[C@]12C [Compound 1, 17β-N,N-Diethylcarbamoyl-6-azaandrost-4,6-diazo-4-en-3-one]",100 to 1000 nM
